#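 These data come from cells grown in 96-well plates and exposed to compound for 48 hours at five concentrations. Here, GI50 denotes the concentration required for 50% inhibition of growth.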 The source made the active and inactive calls. Rule as the data show it: active = GI50 up to about 1.1 µM and inactive = higher.
# Tests used:
# Experiment in all cases: DTP human tumour cell line panel, 48 h
# A498 = tested on: A498
# A549 = tested on: A549
# CCRF-CEM = tested on: CCRF-CEM
# DMS-114 = tested on: DMS-114
# DMS-273 = tested on: DMS-273
# EKVX = tested on: EKVX
# HCT-116 = tested on: HCT-116
# HL-60 = tested on: HL-60
# HOP-62 = tested on: HOP-62
# HOP-92 = tested on: HOP-92
# HT-29 = tested on: HT-29
# IGROV-1 = tested on: IGROV-1
# KM12 = tested on: KM12
# M14 = tested on: M14
# M19-MEL = tested on: M19-MEL
# MOLT-4 = tested on: MOLT-4
# NCI-H226 = tested on: NCI-H226
# NCI-H23 = tested on: NCI-H23
# NCI-H460 = tested on: NCI-H460
# NCI-H522 = tested on: NCI-H522
# OVCAR-5 = tested on: OVCAR-5
# OVCAR-8 = tested on: OVCAR-8
# RXF 393 = tested on: RXF 393
# SF-268 = tested on: SF-268
# SK-MEL-28 = tested on: SK-MEL-28
# SK-OV-3 = tested on: SK-OV-3
# SNB-19 = tested on: SNB-19
# SNB-78 = tested on: SNB-78
# SR = tested on: SR
# TK-10 = tested on: TK-10
# U-251 = tested on: U-251
# UACC-257 = tested on: UACC-257
# UACC-62 = tested on: UACC-62
# UO-31 = tested on: UO-31
# 786-0 = tested on: 786-0
# ACHN = tested on: ACHN
# COLO 205 = tested on: COLO 205
# DLD-1 = tested on: DLD-1
# HCC 2998 = tested on: HCC 2998
# HCT-15 = tested on: HCT-15
# K562 = tested on: K562
# KM-20L2 = tested on: KM-20L2
# LOX IMVI = tested on: LOX IMVI
# LXFL 529 = tested on: LXFL 529
# OVCAR-3 = tested on: OVCAR-3
# OVCAR-4 = tested on: OVCAR-4
# RPMI-8226 = tested on: RPMI-8226
# SF-295 = tested on: SF-295
# SK-MEL-5 = tested on: SK-MEL-5
# SN12C = tested on: SN12C
# SW-620 = tested on: SW-620
# XF498 = tested on: XF498
# CAKI-1 = tested on: CAKI-1
# Malme-3M = tested on: Malme-3M
# SF-539 = tested on: SF-539
# SK-MEL-2 = tested on: SK-MEL-2
# SNB-75 = tested on: SNB-75
smiles,measurement,setting,value
COc1ccc(OC)c2c(=O)c3ccccc3[nH]c12,GI50,A498,69.3 µM (inactive)
same,GI50,A549,47 µM (inactive)
same,GI50,CCRF-CEM,> 100 µM (inactive)
same,GI50,DMS-114,66.8 µM (inactive)
same,GI50,DMS-273,62.5 µM (inactive)
same,GI50,EKVX,> 100 µM (inactive)
same,GI50,HCT-116,44.2 µM (inactive)
same,GI50,HL-60,48.3 µM (inactive)
same,GI50,HOP-62,> 100 µM (inactive)
same,GI50,HOP-92,37.1 µM (inactive)
same,GI50,HT-29,45.6 µM (inactive)
same,GI50,IGROV-1,> 100 µM (inactive)
same,GI50,KM12,57.8 µM (inactive)
same,GI50,M14,74.8 µM (inactive)
same,GI50,M19-MEL,> 100 µM (inactive)
same,GI50,MOLT-4,47.9 µM (inactive)
same,GI50,NCI-H226,66.5 µM (inactive)
same,GI50,NCI-H23,41.7 µM (inactive)
same,GI50,NCI-H460,38.9 µM (inactive)
same,GI50,NCI-H522,82.8 µM (inactive)
same,GI50,OVCAR-5,70.1 µM (inactive)
same,GI50,OVCAR-8,19.3 µM (inactive)
same,GI50,RXF 393,41.2 µM (inactive)
same,GI50,SF-268,54.3 µM (inactive)
same,GI50,SK-MEL-28,> 100 µM (inactive)
same,GI50,SK-OV-3,> 100 µM (inactive)
same,GI50,SNB-19,96.6 µM (inactive)
same,GI50,SNB-78,49.7 µM (inactive)
same,GI50,SR,41.1 µM (inactive)
same,GI50,TK-10,> 100 µM (inactive)
same,GI50,U-251,54.1 µM (inactive)
same,GI50,UACC-257,4.44 µM (inactive)
same,GI50,UACC-62,43.6 µM (inactive)
same,GI50,UO-31,30.9 µM (inactive)
CC(C)=CCOc1ccc(-c2coc3cc4c(c(O)c3c2=O)C=CC(C)(C)O4)cc1,GI50,786-0,96.8 µM (inactive)
same,GI50,A498,14.9 µM (inactive)
same,GI50,A549,32.9 µM (inactive)
same,GI50,ACHN,> 100 µM (inactive)
same,GI50,CCRF-CEM,43.5 µM (inactive)
same,GI50,COLO 205,> 100 µM (inactive)
same,GI50,DLD-1,50.7 µM (inactive)
same,GI50,DMS-114,18.2 µM (inactive)
same,GI50,EKVX,5.22 µM (inactive)
same,GI50,HCC 2998,83.6 µM (inactive)
same,GI50,HCT-116,6.9 µM (inactive)
same,GI50,HCT-15,21 µM
same,GI50,HL-60,> 100 µM (inactive)
same,GI50,HOP-62,> 100 µM (inactive)
same,GI50,HT-29,> 100 µM (inactive)
same,GI50,IGROV-1,21.1 µM (inactive)
same,GI50,K562,0.389 µM (active)
same,GI50,KM-20L2,> 100 µM (inactive)
same,GI50,KM12,> 100 µM (inactive)
same,GI50,LOX IMVI,1.7 µM (inactive)
same,GI50,LXFL 529,20.9 µM (inactive)
same,GI50,M19-MEL,47.9 µM (inactive)
same,GI50,MOLT-4,> 100 µM (inactive)
same,GI50,NCI-H226,> 100 µM (inactive)
same,GI50,NCI-H23,5.35 µM (inactive)
same,GI50,NCI-H460,63.2 µM (inactive)
same,GI50,NCI-H522,0.129 µM (active)
same,GI50,OVCAR-3,2.13 µM (inactive)
same,GI50,OVCAR-4,16.7 µM (inactive)
same,GI50,OVCAR-5,> 100 µM (inactive)
same,GI50,OVCAR-8,50.7 µM (inactive)
same,GI50,RPMI-8226,27.3 µM (inactive)
same,GI50,RXF 393,> 100 µM (inactive)
same,GI50,SF-268,> 100 µM (inactive)
same,GI50,SF-295,49.5 µM (inactive)
same,GI50,SK-MEL-28,91.4 µM (inactive)
same,GI50,SK-MEL-5,0.207 µM (active)
same,GI50,SN12C,> 100 µM (inactive)
same,GI50,SNB-19,56 µM (inactive)
same,GI50,SNB-78,59.3 µM (inactive)
same,GI50,SR,> 100 µM (inactive)
same,GI50,SW-620,> 100 µM (inactive)
same,GI50,TK-10,> 100 µM (inactive)
same,GI50,U-251,38.8 µM (inactive)
same,GI50,UACC-257,14.3 µM (inactive)
same,GI50,UO-31,> 100 µM (inactive)
same,GI50,XF498,15.9 µM (inactive)
CCOc1ccc(NC(=O)c2c(N/N=C/c3ccc(OC)cc3)nc(=O)[nH]c2C)cc1,GI50,786-0,52.2 µM (inactive)
same,GI50,A498,18.4 µM (inactive)
same,GI50,ACHN,60 µM (inactive)
same,GI50,CAKI-1,44.5 µM (inactive)
same,GI50,CCRF-CEM,> 100 µM (inactive)
same,GI50,COLO 205,> 100 µM (inactive)
same,GI50,DLD-1,63.5 µM (inactive)
same,GI50,DMS-273,33.7 µM (inactive)
same,GI50,HCC 2998,> 100 µM (inactive)
same,GI50,HCT-116,38.6 µM (inactive)
same,GI50,HCT-15,> 100 µM
same,GI50,HL-60,> 100 µM (inactive)
same,GI50,HOP-62,38.5 µM (inactive)
same,GI50,HOP-92,46.2 µM (inactive)
same,GI50,IGROV-1,51.5 µM (inactive)
same,GI50,K562,> 100 µM (inactive)
same,GI50,LXFL 529,> 100 µM (inactive)
same,GI50,M14,45.4 µM (inactive)
same,GI50,M19-MEL,85.5 µM (inactive)
same,GI50,MOLT-4,> 100 µM (inactive)
same,GI50,Malme-3M,97.9 µM (inactive)
same,GI50,NCI-H226,41.6 µM (inactive)
same,GI50,NCI-H23,65.8 µM (inactive)
same,GI50,NCI-H460,56.4 µM (inactive)
same,GI50,NCI-H522,22.9 µM (inactive)
same,GI50,OVCAR-4,34.7 µM (inactive)
same,GI50,RPMI-8226,> 100 µM (inactive)
same,GI50,SF-268,> 100 µM (inactive)
same,GI50,SF-539,37 µM (inactive)
same,GI50,SK-MEL-28,> 100 µM (inactive)
same,GI50,SK-MEL-2,84.5 µM (inactive)
same,GI50,SK-OV-3,33.6 µM (inactive)
same,GI50,SN12C,76 µM (inactive)
same,GI50,SNB-75,37.8 µM (inactive)
same,GI50,SNB-78,57.8 µM (inactive)
same,GI50,SR,> 100 µM (inactive)
same,GI50,UACC-62,> 100 µM (inactive)
same,GI50,UO-31,49.4 µM (inactive)
same,GI50,XF498,> 100 µM (inactive)

# Reference: ChEMBL document CHEMBL1201862, “PubChem BioAssay data set” (2004)
